Experimental data as given in US8575201B2 (Boehringer Ingelheim International GmbH, priority 2010, dated 2013).

How the values were obtained:
[1] = biological target: recombinant human FLAP protein (Homo sapiens (Human), UniProt P20292); assay: FLAP binding assay (Scintillation Proximity Assay, displacement of [125I]L-691,831); conditions: read-out: FLAP SPA IC50
Procedure: Assessment of Biological Properties 1. Binding Assay: Compounds are assessed for the ability to bind to FLAP in a binding assay that measures compound-specific displacement of an iodinated (^125I) FLAP inhibitor via a Scintillation Proximity Assay format (adapted from S. Charleson et al., Mol. Pharmacol., 1992, 41, 873-879). […] The cells are lysed with a Dounce homogenizer and the material is centrifuged at 10,000×g for 10 minutes. The supernatant is then collected and centrifuged at 100,000×g for 60 minutes. To prepare membrane protein for an assay, an aliquot of the 100,000×g pellet is resuspended in 1 ml of buffer A, Dounce homogenized, and finally subjected to polytron mixing (30 seconds). […] Mol. Pharmacol., 41, 873-879, 1992) and finally 50 μl of the bead/protein mixture. (final concentrations: beads, 200 μg/well; protein, 5 μg/well; […] The plates are shaken for 2 h before reading on a Microbeta plate reader.

[2] = tested on: synthesis of LTB4 in human whole blood; assay: Human whole blood LTB4 production inhibition assay; format: cell-based; conditions: calcimycin stimulated, read-out: hWB LTB4 IC50
Procedure: Compounds are additionally tested in a human whole blood assay to determine their ability to inhibit the synthesis of LTB4 in a cellular system. Compounds are combined with heparinized human whole blood and incubated for 15 minutes at 37° C. Calcimycin (20 μM final, prepared in phosphate-buffered saline, pH 7.4) is then added and the mixture is incubated for another 30 minutes at 37° C. The samples are centrifuged for 5 min at low speed (1500×g) and the plasma layer is removed. Plasma LTB4 concentrations are then measured using an antibody-based homogenous time-resolved fluorescence method (CisBio, Bedford, Mass.).

Sequence of recombinant human FLAP protein (P20292 whole entry): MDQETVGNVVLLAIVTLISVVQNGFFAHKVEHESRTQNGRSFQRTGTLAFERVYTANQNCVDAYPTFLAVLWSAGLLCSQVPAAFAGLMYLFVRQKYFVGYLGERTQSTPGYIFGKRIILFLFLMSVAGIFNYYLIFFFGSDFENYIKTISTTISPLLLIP

SMILES	IC50 [1]	IC50 [2]
Nc1ncc(-c2ccc(C3(c4noc(-c5cccnc5)n4)CCOCC3)cn2)cn1 [Example 72, 5-(5-{4-[5-(pyridin-3-yl)-1,2,4-oxadiazol-3-yl]tetrahydro-2H-pyran-4-yl}pyridin-2-yl)pyrimidin-2-amine]	610 nM	2300 nM
Nc1ncc(-c2ccc(C3(c4noc(-c5cnn(C(F)F)c5)n4)CCC3)cn2)cn1 [Example 66, 5-[5-(1-{5-[1-(difluoromethyl)-1H-pyrazol-4-yl]-1,2,4-oxadiazol-3-yl}cyclobutyl)pyridin-2-yl]pyrimidin-2-amine]	7.4 nM	200 nM
Nc1ncc(-c2ccc(C3(c4noc(-c5ccc(N6CCS(=O)(=O)CC6)nc5)n4)CCC3)cn2)cn1 [Example 49, 5-[5-(1-{5-[6-(1,1-dioxidothiomorpholin-4-yl)pyridin-3-yl]-1,2,4-oxadiazol-3-yl}cyclobutyl)pyridin-2-yl]pyrimidin-2-amine]	3.7 nM	180 nM
CC(C)(C(=O)O)n1cc(-c2nc(C3(c4ccc(-c5cnc(N)nc5)nc4)CCC3)no2)cn1 [Example 65, 2-[4-(3-{1-[6-(2-aminopyrimidin-5-yl)pyridin-3-yl]cyclobutyl}-1,2,4-oxadiazol-5-yl)-1H-pyrazol-1-yl]-2-methylpropanoic acid]	590 nM	> 5000 nM
COC(=O)[C@H]1CN(c2ccc(-c3nc(C4(c5ccc(-c6cnc(N)nc6)nc5)CCC4)no3)cn2)CCN1 [Example 40, methyl (2R)-4-[5-(3-{1-[6-(2-aminopyrimidin-5-yl)pyridin-3-yl]cyclobutyl}-1,2,4-oxadiazol-5-yl)pyridin-2-yl]piperazine-2-carboxylate]	3.3 nM	92 nM
Nc1ncc(-c2ccc(C3(c4noc(-c5cccnc5)n4)CCC3)cn2)cn1 [Example 73, 5-{5-[1-(5-Pyridin-3-yl-1,2,4-oxadiazol-3-yl)-cyclobutyl]-pyridin-2-yl}-pyrimidin-2-ylamine]	25 nM	460 nM
Nc1ncc(-c2ccc(C3(c4noc(-c5ccc6nccn6c5)n4)CCC3)cn2)cn1 [Example 27, 5-(5-{1-[5-(imidazo[1,2-a]pyridin-6-yl)-1,2,4-oxadiazol-3-yl]cyclobutyl}pyridin-2-yl)pyrimidin-2-amine]	12.4 nM	420 nM
Nc1ncc(-c2ccc(C3(c4noc(-c5ccc(N6CC[C@H](O)C6)nc5)n4)CCC3)cn2)cn1 [Example 48, (3S)-1-[5-(3-{1-[6-(2-aminopyrimidin-5-yl)pyridin-3-yl]cyclobutyl}-1,2,4-oxadiazol-5-yl)pyridin-2-yl]pyrrolidin-3-ol]	2.2 nM	140 nM
Nc1ncc(-c2ccc(C3(c4noc(-c5ccc(N6CCN[C@@H](C(=O)O)C6)nc5)n4)CCC3)cn2)cn1 [Example 42, (2R)-4-[5-(3-{1-[6-(2-aminopyrimidin-5-yl)pyridin-3-yl]cyclobutyl}-1,2,4-oxadiazol-5-yl)pyridin-2-yl]piperazine-2-carboxylic acid]	7.7 nM	> 5000 nM
CS(=O)(=O)CCNc1ccc(-c2nc(C3(c4ccc(-c5cnc(N)nc5)nc4)CCC3)no2)cn1 [Example 51, 5-(5-{1-[5-(6-{[2-(methylsulfonyl)ethyl]amino}pyridin-3-yl)-1,2,4-oxadiazol-3-yl]cyclobutyl}pyridin-2-yl)pyrimidin-2-amine]	4.8 nM	150 nM
CS(=O)(=O)Cn1cc(-c2nc(C3(c4ccc(-c5cnc(N)nc5)nc4)CCC3)no2)cn1 [Example 71, 5-{5-[1-(5-{1-[(methylsulfonyl)methyl]-1H-pyrazol-4-yl}-1,2,4-oxadiazol-3-yl)cyclobutyl]pyridin-2-yl}pyrimidin-2-amine]	58 nM	390 nM
CCn1cc(-c2nc(C3(c4ccc(-c5cnc(N)nc5)nc4)CCC3)no2)cn1 [Example 63, 5-(5-{1-[5-(1-ethyl-1H-pyrazol-4-yl)-1,2,4-oxadiazol-3-yl]cyclobutyl}pyridin-2-yl)pyrimidin-2-amine]	8.8 nM	190 nM

The next lines start with the values.

IC50 [1]	IC50 [2]	SMILES
1.5 nM	280 nM	CC(C)Nc1ccc(-c2nc(C3(c4ccc(-c5cnc(N)nc5)nc4)CCC3)no2)cn1 [Example 114, 5-[5-(1-{5-[6-(propan-2-ylamino)pyridin-3-yl]-1,2,4-oxadiazol-3-yl}cyclobutyl)pyridin-2-yl]pyrimidin-2-amine]
26 nM	350 nM	Cc1cnc(-c2nc(C3(c4ccc(-c5cnc(N)nc5)nc4)CCC3)no2)cn1 [Example 130, 5-(5-{1-[5-(5-methylpyrazin-2-yl)-1,2,4-oxadiazol-3-yl]cyclobutyl}pyridin-2-yl)pyrimidin-2-amine]
7.3 nM	490 nM	Nc1ncc(-c2ccc(C3(c4noc(-c5cnccc5Cl)n4)CCC3)cn2)cn1 [Example 88, 5-(5-{1-[5-(4-chloropyridin-3-yl)-1,2,4-oxadiazol-3-yl]cyclobutyl}pyridin-2-yl)pyrimidin-2-amine]
120 nM	960 nM	Nc1ncc(-c2ccc(C3(c4noc(-c5cncnc5)n4)CCC3)cn2)cn1 [Example 100, 5-(5-{1-[5-(pyrimidin-5-yl)-1,2,4-oxadiazol-3-yl]cyclobutyl}pyridin-2-yl)pyrimidin-2-amine]
160 nM	430 nM	CC(C)(C(N)=O)n1cc(-c2nc(C3(c4ccc(-c5cnc(N)nc5)nc4)CCC3)no2)cn1 [Example 149, 2-[4-(3-{1-[6-(2-amino-pyrimidin-5-yl)-pyridin-3-yl]-cyclobutyl}-[1,2,4]oxadiazol-5-yl)-pyrazol-1-yl]-isobutyramide]
190 nM	4000 nM	Nc1ncc(-c2ccc(C3(c4noc(-c5cnccc5O)n4)CCC3)cn2)cn1 [Example 107, 3-(3-{1-[6-(2-aminopyrimidin-5-yl)pyridin-3-yl]cyclobutyl}-1,2,4-oxadiazol-5-yl)pyridin-4-ol]
4.5 nM	210 nM	Cc1ccc(-c2nc(C3(c4ccc(-c5cnc(N)nc5)nc4)CCC3)no2)cn1 [Example 74, 5-(5-{1-[5-(6-methylpyridin-3-yl)-1,2,4-oxadiazol-3-yl]cyclobutyl}pyridin-2-yl)pyrimidin-2-amine]
580 nM	3000 nM	Nc1ncc(-c2ccc(C3(c4noc(-c5cccnc5)n4)CCOCC3)nc2)cn1 [Example 137, 5-(6-{4-[5-(pyridin-3-yl)-1,2,4-oxadiazol-3-yl]tetrahydro-2H-pyran-4-yl}pyridin-3-yl)pyrimidin-2-amine]
18 nM	1100 nM	COc1ccncc1-c1nc(C2(c3ccc(-c4cnc(N)nc4)nc3)CCC2)no1 [Example 86, 5-(5-{1-[5-(4-methoxypyridin-3-yl)-1,2,4-oxadiazol-3-yl]cyclobutyl}pyridin-2-yl)pyrimidin-2-amine]
540 nM	> 5000 nM	Cc1cc(-c2nc(C3(c4ccc(-c5cnc(N)nc5)cn4)CCOCC3)no2)n(C)n1 [Example 136, 5-(6-{4-[5-(1,3-dimethyl-1H-pyrazol-5-yl)-1,2,4-oxadiazol-3-yl]tetrahydro-2H-pyran-4-yl}pyridin-3-yl)pyrimidin-2-amine]
2.7 nM	180 nM	Nc1ncc(-c2ccc(C3(c4noc(-c5ccc(N6CCOCC6)nc5)n4)CCC3)cn2)cn1 [Example 89, 5-[5-(1-{5-[6-(morpholin-4-yl)pyridin-3-yl]-1,2,4-oxadiazol-3-yl}cyclobutyl)pyridin-2-yl]pyrimidin-2-amine]
34 nM	> 5000 nM	CN(C)c1ncccc1-c1nc(C2(c3ccc(-c4cnc(N)nc4)nc3)CCC2)no1 [Example 126, 5-[5-(1-{5-[2-(dimethylamino)pyridin-3-yl]-1,2,4-oxadiazol-3-yl}cyclobutyl)pyridin-2-yl]pyrimidin-2-amine]
13 nM	100 nM	Nc1ccc(-c2ccc(C3(c4noc(-c5cnn(C6COC6)c5)n4)CCC3)cn2)cn1 [Example 152, 5-{1-[5-(1-oxetan-3-yl-1H-pyrazol-4-yl)-[1,2,4]oxadiazol-3-yl]-cyclobutyl}-[2,3′]bipyridinyl-6′-ylamine]
83 nM	510 nM	CN(CC1CCCO1)C(=O)Cn1cc(-c2nc(C3(c4ccc(-c5cnc(N)nc5)nc4)CCC3)no2)cn1 (centres unmarked) [Example 159, 2-[4-(3-{1-[6-(2-amino-pyrimidin-5-yl)-pyridin-3-yl]-cyclobutyl}-[1,2,4]oxadiazol-5-yl)-pyrazol-1-yl]-N-methyl-N-(tetrahydro-furan-2-ylmethyl)-acetamide]
25 nM	790 nM	COC(=O)c1ccc(-c2nc(C3(c4ccc(-c5cnc(N)nc5)nc4)CCC3)no2)cn1 [Example 81, methyl 5-(3-{1-[6-(2-aminopyrimidin-5-yl)pyridin-3-yl]cyclobutyl}-1,2,4-oxadiazol-5-yl)pyridine-2-carboxylate]
200 nM	> 5000 nM	Nc1ncc(-c2ccc(C3(c4noc(-c5nc[nH]n5)n4)CCC3)cn2)cn1 [Example 120, 5-(5-{1-[5-(1H-1,2,4-triazol-3-yl)-1,2,4-oxadiazol-3-yl]cyclobutyl}pyridin-2-yl)pyrimidin-2-amine]
